Test results as given in patent publication US20250327032A1, “AGENT FOR AVOIDING IMMUNE RESPONSE OF TRANSGENIC CELLS” (HYPERION DRUG DISCOVERY CO., LTD., priority 2021, published 2025).

Columns and labels:
Type in all cases: cell-based
[1] = tested on: human mesenchymal stem cells; assay: Introduction of GFP mRNA by lipofection, yield of GFP-positive cells; details: calcitriol 1 μM; GFP mRNA containing pseudouridine instead of uridine, 10 pg/cell
Procedure: (§1) Human mesenchymal stem cells were seeded in a 6-well plate to be about 10,000 cells/cm^2. Human myoblasts were seeded in another 6-well plate to be about 20,000 cells/cm^2. As a culture solution, a basal medium for each cell supplemented with 0.1, 1, or 10 μM of JSH-23 was used. As a control, a basal medium for each cell supplemented with 0.1% (v/v) DMSO instead of JSH-23 was used as a culture solution.
(§2) A lipofection solution was prepared by adding Lipofectamine RNAiMAX and fluorescent protein GFP mRNA to OptiMEM. As the GFP mRNA, that containing uridine or that containing pseudouridine instead of uridine was used. In addition, for those containing pseudouridine, a basal medium for each cell supplemented with 1 μM of JSH-23 was used, and as a control, a basal medium for each cell supplemented with 0.1% (v/v) DMSO instead of JSH-23 was used as a culture solution. It was prepared so that the amount of mRNA was 10 pg/cell for human mesenchymal stem cells and 5 pg/cell for human myoblasts. The prepared lipofection solution was mixed well according to the manufacturer's recommended protocol and allowed to stand at room temperature for about 15 minutes.
(§3) Next, each lipofection solution was added to the plate seeded with human mesenchymal stem cells or human myoblasts, and cultured in a CO2 incubator at 37° C. for about 1 day (18 hours) (human mesenchymal stem cells) or for 2 days (42 hours) (human myoblasts). After culturing, all the culture solution comprising the lipofection solution was removed and replaced with a new culture solution having the same composition as before the addition of the lipofection solution.
(§4) After another 6 hours, the above lipofection solution was newly prepared, added again to the plate seeded with human mesenchymal stem cells or human myoblasts, and cultured in a CO2 incubator at 37° C. for about 1 day (18 hours) (mesenchymal stem cells) or about 2 days (42 hours) (human myoblasts). These steps were repeated so that the introduction of genes was performed a total of 4 times.
(§5) Twenty-four hours after the final introduction of genes, the cells were detached with a cell detachment solution, centrifuged at 600×g for 5 minutes using a centrifuge, to collect the cells. The collected cells were counted using a hemocytometer. Furthermore, the GFP-positive percentage of the collected cells was measured using a flow cytometer. The yield of the number of GFP-positive cells was calculated from the number of cells counted and the GFP-positive rate.
as §1, with “1” for “0.1, 1, or 10”, “calcitriol” for “JSH-23”
(§6) A lipofection solution was prepared by adding Lipofectamine RNAiMAX and fluorescent protein GFP mRNA to OptiMEM. As the GFP mRNA, that containing uridine, or that containing pseudouridine instead of uridine was used. It was prepared so that the amount of mRNA was 10 pg/cell for human mesenchymal stem cells and 5 pg/cell for human myoblasts. The prepared lipofection solution was mixed well according to the manufacturer's recommended protocol and allowed to stand at room temperature for about 15 minutes.

human myoblasts [2] = assay: as above; details: calcitriol 1 μM
Procedure: as §1, §2, §3, §4, §5
as §1, with “1” for “0.1, 1, or 10”, “calcitriol” for “JSH-23”
as §6

human myoblasts [3] = assay: Introduction of GFP viral vector (polybrene method), yield of GFP-positive cells; details: calcitriol 1 μM; viral vector MOI 0.1, 5 or 10, polybrene 0, 5 or 10 μg/mL; depending on the transduction conditions
Procedure: Human mesenchymal stem cells were seeded in a 6-well plate to be about 2,000 cells/cm^2. Human myoblasts were seeded in another 6-well plate to be about 2,000 cells/cm^2. As a culture solution, a basal medium for each cell supplemented with JSH-23 was used. JSH-23 was added at 1 μM to the culture solution used for human mesenchymal stem cells, and at 0.1 μM to the culture solution used for human myoblasts. As a control, a basal medium, i.e., αMEM (+10% serum) for human mesenchymal stem cells and MCDB131 (+10% serum) for human myoblasts, to which 0.1% (v/v) DMSO instead of JSH-23 was added was used as a culture solution.
A mixed solution was prepared by mixing GFP viral vector and a polybrene solution. […]
Next, the above mixed solution was added to the plate seeded with human mesenchymal stem cells or human myoblasts, and cultured in a CO2 incubator at 37° C. for 24 hours.
as §5, with “Four days” for “Twenty-four hours”, “addition” for “final introduction”, “the virus-free culture solution,” for “genes,”, “solution and” for “solution,”, “percentage. […]” for “rate.”

[4] = tested on: human mesenchymal stem cells; assay: Introduction of GFP mRNA with PEIMAX and other NFκB nuclear translocation inhibitors (Example 13), cell yield; details: GFP mRNA 10 pg/cell, PEIMAX
Procedure: Improvement in the yield of transgenic cells was investigated when using the NFκB nuclear translocation inhibitor of the present invention other than JSH-23 and calcitriol. Introduction of genes was performed using vitamin B6, vitamin C, vitamin E, and rolipram as an NFκB nuclear translocation inhibitor other than JSH-23 and calcitriol. The specific procedure is as follows.
Human mesenchymal stem cells were seeded in a 6-well plate to be about 10,000 cells/cm^2. As a culture solution, a basal medium supplemented with vitamin B6 and vitamin E at 2 μM and 10 μM, vitamin C at 20 μM and 100 μM, and rolipram at 10 μM was used. As a control, the basal medium for each cell supplemented with 0.1% (v/v) DMSO instead of each compound was used as a culture solution.
A lipofection solution was prepared by adding PEIMAX and fluorescent protein GFP mRNA to OptiMEM. It was prepared so that the amount of mRNA was 10 pg/cell. […]
as §5, with “cells. In addition, the” for “cells. The”, “GFP-positive percentage.” for “GFP-positive rate.”

## C=C1/C(=C\C=C2/CCC[C@]3(C)[C@@H]([C@H](C)CCCC(C)(C)O)CC[C@@H]23)C[C@@H](O)C[C@@H]1O [calcitriol]
[1]
  yield of GFP-positive cells compared to the control (control set to 1): ≥ 2.7 times
Human myoblasts [2]; GFP mRNA containing pseudouridine instead of uridine, 5 pg/cell
  yield of GFP-positive cells compared to the control (control set to 1): ≥ 4 times
Human myoblasts [2]; GFP mRNA containing uridine, 5 pg/cell, second statement of b89
  yield of GFP-positive cells compared to the control (control set to 1): ≥ 5 times
Human myoblasts [2]; GFP mRNA containing uridine, first statement of b89, printed as human myoblasts
  yield of GFP-positive cells compared to the control (control set to 1): ≥ 7 times
Human myoblasts [3]
  increase of the number of GFP-positive cells by adding calcitriol: about 4.5 times

## COc1ccc(C2CNC(=O)C2)cc1OC1CCCC1 (stereo not shown) [rolipram]
[4]; compound at 10 μM
  number of viable cells after introduction of genes relative to control (set to 1): about 1.3 times

## Cc1ncc(CO)c(CO)c1O.Cl [vitamin B6]
[4]; compound at 2 μM and 10 μM
  number of viable cells after introduction of genes relative to control (set to 1): about 1.2 times
